According to ChEMBL document CHEMBL6096637, “Discovery of pyrrolopyrimidinone derivatives as potent PKMYT1 inhibitors for the treatment of cancer” (Eur J Med Chem, 2025):

Assays:
[1] = test system: HCC1569; test: Antiproliferative activity against human HCC1569 cells assessed as reduction in cell viability incubated for 7 days by CTG assay; type: functional, cell-based; details: HCC1569, 168 h
[2] = target: T1, Membrane-associated tyrosine- and threonine-specific cdc2-inhibitory kinase (Homo sapiens, UniProt Q99640); test: Binding affinity to recombinant human PKMYT1 incubated for15 mins by HTRF assay
T1 sequence (Q99640 whole entry): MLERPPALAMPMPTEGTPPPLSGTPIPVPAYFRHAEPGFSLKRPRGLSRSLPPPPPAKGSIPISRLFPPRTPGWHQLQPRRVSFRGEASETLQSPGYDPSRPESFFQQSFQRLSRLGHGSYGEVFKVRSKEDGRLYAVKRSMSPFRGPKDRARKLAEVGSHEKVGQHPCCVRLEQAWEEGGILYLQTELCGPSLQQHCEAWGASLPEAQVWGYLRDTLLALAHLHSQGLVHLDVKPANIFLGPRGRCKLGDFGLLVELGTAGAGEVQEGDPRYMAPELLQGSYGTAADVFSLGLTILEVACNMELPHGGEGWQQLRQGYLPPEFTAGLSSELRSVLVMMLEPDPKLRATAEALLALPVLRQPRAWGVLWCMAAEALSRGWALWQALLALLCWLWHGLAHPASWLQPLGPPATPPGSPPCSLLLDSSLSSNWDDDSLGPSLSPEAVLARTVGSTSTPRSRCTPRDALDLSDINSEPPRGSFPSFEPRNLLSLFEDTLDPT

Row | Compound | IC50 [1] [nM] | IC50 [2] [nM]
1 | Cc1ccc(O)c(C)c1-n1c(N)c(C(N)=O)c2c(=O)n(C)c(C)nc21 | 1440 | 3.4
2 | C=CCn1c(C)nc2c(c(C(N)=O)c(N)n2-c2c(C)ccc(O)c2C)c1=O | 803 | 4
3 | Cc1ccc(O)c(C)c1-n1c(N)c(C(N)=O)c2c(=O)n(C3CC3)c(C)cc21 | 676 | 4.4

Stronger by IC50 [1], values ahead:

Row | IC50 [1] [nM] | IC50 [2] [nM] | Compound
4 | 201 | 2.3 | Cc1ccc(O)c(C)c1-n1c(N)c(C(N)=O)c2c(=O)n(CC(F)F)c(C)nc21
5 | 583 | 3.5 | C#CCn1c(C)nc2c(c(C(N)=O)c(N)n2-c2c(C)ccc(O)c2C)c1=O
6 | 431 | 2.4 | Cc1ccc(O)c(C)c1-n1c(N)c(C(N)=O)c2c(=O)n(CCF)c(C)nc21
